Experimental findings from ChEMBL document CHEMBL1909046, “DrugMatrix in vitro pharmacology data” are described below.

Each structure is given as a SMILES string.

Test [1] deals with T1, Muscarinic acetylcholine receptor M5 (Homo sapiens, UniProt P08912).
T1 sequence (P08912 whole entry): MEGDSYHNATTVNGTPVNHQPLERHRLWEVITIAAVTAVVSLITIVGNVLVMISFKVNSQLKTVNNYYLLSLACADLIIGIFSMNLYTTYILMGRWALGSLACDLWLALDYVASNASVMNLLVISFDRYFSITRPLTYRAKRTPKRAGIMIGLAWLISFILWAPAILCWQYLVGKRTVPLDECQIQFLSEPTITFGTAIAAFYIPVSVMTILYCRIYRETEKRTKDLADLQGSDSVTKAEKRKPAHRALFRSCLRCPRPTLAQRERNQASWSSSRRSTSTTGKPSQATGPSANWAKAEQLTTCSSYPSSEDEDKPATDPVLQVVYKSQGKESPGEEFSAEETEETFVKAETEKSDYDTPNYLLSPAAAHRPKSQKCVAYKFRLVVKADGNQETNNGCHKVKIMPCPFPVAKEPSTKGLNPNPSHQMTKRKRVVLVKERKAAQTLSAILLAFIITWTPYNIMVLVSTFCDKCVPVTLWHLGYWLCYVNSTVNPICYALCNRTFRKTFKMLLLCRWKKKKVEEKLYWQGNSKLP
In kind it is cell membranes, CHO-K1, Membrane. Conditions: cho-k1.

Test [2] is described as follows: DRUGMATRIX: Sodium/nucleoside co-transporter radioligand binding (ligand: nitrobenzylthioinosine). Conditions: Not Active = under 50% inhibition at 10 µM. The format is cell membranes, Cavia porcellus, Dunkin-Hartley, Cerebral cortex, Membrane.
Test [3] deals with T2, Muscarinic acetylcholine receptor M2 (Homo sapiens, UniProt P08172).
T2 sequence (P08172 whole entry): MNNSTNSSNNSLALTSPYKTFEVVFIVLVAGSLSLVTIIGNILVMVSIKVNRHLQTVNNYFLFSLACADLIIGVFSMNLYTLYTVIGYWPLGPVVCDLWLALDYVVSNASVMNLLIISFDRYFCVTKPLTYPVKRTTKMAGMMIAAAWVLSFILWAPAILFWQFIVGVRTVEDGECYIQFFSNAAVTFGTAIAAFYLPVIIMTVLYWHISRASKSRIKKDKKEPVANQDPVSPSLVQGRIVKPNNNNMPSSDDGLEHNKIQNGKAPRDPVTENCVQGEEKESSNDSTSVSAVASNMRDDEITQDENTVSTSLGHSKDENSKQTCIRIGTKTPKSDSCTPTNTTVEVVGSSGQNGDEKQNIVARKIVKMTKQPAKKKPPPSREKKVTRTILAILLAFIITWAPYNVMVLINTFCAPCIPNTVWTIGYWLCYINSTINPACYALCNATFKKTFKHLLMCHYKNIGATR
In kind it is cell membranes, CHO-K1, Membrane. Conditions: cho-k1.

The next test has as its target Vasopressin V1a receptor (Homo sapiens, UniProt P37288). In kind it is cell membranes, Membrane. Conditions: hek293. Also: in other assays of this panel Not Active means under 50% inhibition at 10 µM.
In the next test the target is T3, Caspase-1 (Homo sapiens, UniProt P29466).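 Also: Caspase-1 enzyme inhibition assay with a peptide substrate; in other assays of this panel Not Active means under 50% inhibition at 10 µM.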
T3 sequence (P29466 whole entry): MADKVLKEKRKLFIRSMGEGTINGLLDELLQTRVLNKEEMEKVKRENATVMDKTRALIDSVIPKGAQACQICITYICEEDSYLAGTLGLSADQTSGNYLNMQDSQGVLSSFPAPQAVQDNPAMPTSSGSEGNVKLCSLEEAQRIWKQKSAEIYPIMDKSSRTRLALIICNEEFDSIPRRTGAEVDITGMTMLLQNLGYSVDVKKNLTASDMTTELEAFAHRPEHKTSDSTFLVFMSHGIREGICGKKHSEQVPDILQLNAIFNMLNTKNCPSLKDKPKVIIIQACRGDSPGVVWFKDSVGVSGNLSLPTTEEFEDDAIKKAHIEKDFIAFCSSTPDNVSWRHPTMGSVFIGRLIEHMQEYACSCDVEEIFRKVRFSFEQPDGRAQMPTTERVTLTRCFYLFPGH
Also noted: species or system Escherichia coli.

The nature of test [4]: DRUGMATRIX: GABAA, Flunitrazepam, Central radioligand binding (ligand: [3H] Flunitrazepam). The format is cell membranes, Rattus norvegicus, Wistar, Brain, Membrane. Conditions: Not Active = under 50% inhibition at 10 µM.
Test [5] addresses Mitogen-activated protein kinase 14 (Homo sapiens, UniProt Q16539). Also noted: species or system Escherichia coli.
Test [6] deals with Kappa-type opioid receptor (Homo sapiens, UniProt P41145). In words: DRUGMATRIX: Opiate kappa (OP2, KOP) radioligand binding (ligand: [3H] Diprenorphine). Conditions: hek293; Not Active = under 50% inhibition at 10 µM. In kind it is cell membranes, HEK293, Membrane.
For test [7], the target named is T4, 3-hydroxy-3-methylglutaryl-coenzyme A reductase (Homo sapiens, UniProt P04035).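 Also: enzyme inhibition assay of HMG-CoA reductase using radiolabeled [14C]HMG-CoA as substrate; in other assays of this panel Not Active means under 50% inhibition at 10 µM.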
T4 sequence (P04035 whole entry): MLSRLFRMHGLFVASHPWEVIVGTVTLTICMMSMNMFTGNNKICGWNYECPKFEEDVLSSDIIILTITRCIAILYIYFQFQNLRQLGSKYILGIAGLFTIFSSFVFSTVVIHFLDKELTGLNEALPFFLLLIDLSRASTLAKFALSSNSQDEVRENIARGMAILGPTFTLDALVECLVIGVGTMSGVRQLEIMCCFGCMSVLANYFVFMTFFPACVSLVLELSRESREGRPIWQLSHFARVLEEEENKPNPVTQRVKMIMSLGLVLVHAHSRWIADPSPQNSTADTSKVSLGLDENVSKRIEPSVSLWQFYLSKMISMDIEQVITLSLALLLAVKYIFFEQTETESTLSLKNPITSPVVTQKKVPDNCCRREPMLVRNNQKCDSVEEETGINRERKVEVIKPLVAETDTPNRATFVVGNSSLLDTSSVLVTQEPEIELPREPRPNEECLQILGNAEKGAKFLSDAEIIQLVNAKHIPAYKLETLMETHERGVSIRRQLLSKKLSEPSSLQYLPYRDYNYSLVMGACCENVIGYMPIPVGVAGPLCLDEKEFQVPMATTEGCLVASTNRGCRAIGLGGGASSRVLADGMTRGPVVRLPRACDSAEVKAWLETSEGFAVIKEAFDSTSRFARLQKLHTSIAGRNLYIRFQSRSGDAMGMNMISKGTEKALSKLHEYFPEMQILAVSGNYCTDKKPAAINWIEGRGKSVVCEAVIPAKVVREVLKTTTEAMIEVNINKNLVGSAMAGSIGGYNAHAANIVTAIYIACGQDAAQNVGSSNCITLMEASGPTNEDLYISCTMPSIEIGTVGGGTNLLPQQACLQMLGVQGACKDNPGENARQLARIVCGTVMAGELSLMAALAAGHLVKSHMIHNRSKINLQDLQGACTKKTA
Also noted: species or system Escherichia coli.

Test [8] concerns the target Vascular endothelial growth factor receptor 1 (Homo sapiens, UniProt P17948). In kind it is cell-based. Conditions: huvec. Also: in other assays of this panel Not Active means under 50% inhibition at 10 µM.

Sequence of Mitogen-activated protein kinase 14 (Q16539 whole entry): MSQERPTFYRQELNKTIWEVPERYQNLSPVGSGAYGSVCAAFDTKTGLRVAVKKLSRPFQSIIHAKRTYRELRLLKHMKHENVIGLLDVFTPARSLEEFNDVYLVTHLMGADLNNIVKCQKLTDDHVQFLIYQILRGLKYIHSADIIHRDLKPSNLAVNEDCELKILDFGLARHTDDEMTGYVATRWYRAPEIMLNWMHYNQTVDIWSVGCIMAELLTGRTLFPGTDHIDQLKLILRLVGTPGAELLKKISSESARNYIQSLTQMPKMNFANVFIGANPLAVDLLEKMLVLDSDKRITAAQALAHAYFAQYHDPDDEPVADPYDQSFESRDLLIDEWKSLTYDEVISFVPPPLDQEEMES
Sequence of Vasopressin V1a receptor (P37288 whole entry): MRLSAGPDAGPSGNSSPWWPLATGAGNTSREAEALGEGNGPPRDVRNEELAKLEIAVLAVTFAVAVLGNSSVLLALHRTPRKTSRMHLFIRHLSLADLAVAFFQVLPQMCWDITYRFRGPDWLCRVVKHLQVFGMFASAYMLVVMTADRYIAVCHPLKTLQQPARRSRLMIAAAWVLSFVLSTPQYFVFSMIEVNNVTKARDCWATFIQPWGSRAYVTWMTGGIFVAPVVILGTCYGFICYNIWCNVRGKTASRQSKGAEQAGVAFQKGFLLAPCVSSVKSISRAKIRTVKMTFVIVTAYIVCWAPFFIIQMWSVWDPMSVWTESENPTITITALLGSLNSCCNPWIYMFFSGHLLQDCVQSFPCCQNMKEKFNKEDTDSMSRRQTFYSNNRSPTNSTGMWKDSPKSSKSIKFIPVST
Sequence of Kappa-type opioid receptor (P41145 whole entry): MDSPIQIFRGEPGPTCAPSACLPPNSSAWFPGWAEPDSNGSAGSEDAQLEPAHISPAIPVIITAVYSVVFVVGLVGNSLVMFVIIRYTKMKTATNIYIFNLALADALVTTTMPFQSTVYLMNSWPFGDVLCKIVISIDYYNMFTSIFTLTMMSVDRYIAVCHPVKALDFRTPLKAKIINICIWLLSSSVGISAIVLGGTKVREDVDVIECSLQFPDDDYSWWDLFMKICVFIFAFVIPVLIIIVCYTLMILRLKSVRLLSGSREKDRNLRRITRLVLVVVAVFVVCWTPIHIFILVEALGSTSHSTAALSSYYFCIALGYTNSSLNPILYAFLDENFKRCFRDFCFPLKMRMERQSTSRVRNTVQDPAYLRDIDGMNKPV
Sequence of Vascular endothelial growth factor receptor 1 (P17948 whole entry): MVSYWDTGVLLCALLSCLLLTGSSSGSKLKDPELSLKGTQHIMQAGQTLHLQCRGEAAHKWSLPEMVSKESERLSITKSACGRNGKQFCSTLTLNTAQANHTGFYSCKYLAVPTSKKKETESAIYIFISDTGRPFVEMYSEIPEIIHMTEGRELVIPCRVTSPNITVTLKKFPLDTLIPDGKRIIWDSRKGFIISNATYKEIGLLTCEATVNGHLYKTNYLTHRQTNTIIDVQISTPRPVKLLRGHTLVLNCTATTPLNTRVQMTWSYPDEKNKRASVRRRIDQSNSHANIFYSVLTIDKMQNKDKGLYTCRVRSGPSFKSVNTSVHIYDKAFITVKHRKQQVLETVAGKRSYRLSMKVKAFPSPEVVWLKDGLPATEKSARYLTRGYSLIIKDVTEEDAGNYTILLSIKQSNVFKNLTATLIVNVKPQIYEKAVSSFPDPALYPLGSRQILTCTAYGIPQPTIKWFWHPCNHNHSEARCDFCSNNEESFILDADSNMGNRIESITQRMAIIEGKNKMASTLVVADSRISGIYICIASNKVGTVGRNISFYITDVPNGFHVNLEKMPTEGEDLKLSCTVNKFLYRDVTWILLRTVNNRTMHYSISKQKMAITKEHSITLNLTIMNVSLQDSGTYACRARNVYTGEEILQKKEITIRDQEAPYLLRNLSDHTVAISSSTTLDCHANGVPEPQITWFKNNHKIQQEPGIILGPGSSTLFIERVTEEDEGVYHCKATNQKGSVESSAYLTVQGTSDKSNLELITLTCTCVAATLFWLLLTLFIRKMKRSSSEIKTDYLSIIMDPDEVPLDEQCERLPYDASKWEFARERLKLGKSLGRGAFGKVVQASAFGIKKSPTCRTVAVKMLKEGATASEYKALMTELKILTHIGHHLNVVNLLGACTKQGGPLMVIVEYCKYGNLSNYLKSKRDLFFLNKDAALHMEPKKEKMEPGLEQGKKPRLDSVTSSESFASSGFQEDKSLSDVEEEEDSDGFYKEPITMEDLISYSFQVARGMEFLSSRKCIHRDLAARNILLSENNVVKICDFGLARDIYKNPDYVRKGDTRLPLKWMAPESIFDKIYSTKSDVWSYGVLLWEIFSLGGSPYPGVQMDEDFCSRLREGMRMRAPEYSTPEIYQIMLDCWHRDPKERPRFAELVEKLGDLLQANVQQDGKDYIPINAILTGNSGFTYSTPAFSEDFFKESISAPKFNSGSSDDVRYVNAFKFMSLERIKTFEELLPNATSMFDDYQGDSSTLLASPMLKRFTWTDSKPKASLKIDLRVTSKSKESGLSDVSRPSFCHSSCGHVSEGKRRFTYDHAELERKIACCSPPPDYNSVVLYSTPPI

One may read the IC50 as the midpoint of a concentration-inhibition curve. For orientation: Ki means a dissociation constant, usually derived from enzyme kinetics or from competition with a known ligand. With `COc1c(N2CCNC(C)C2)c(F)cc2c(=O)c(C(=O)O)cn(C3CC3)c12` (stereo not drawn) [GATIFLOXACIN], the IC50 entry (in [1]; in [2]; in [3]; against Vasopressin V1a receptor; against Caspase-1; in test [4]) was “Not Active” throughout. The IC50 result in test [5], in test [6], in test [7] and in [8] was “Not Active” throughout. Besides, the Ki entry in test [2] and in [4] was “Not Active” each time.
On to `NCC(=O)O` [GLYCINE], for which the IC50 entry (in [1]; in test [2]; in [3]; on Vasopressin V1a receptor; on Caspase-1; in test [4]) was “Not Active” in each case. Moreover, the IC50 result in test [5], in [6], in test [7] and in test [8] was “Not Active” throughout. Also, the Ki result in test [2] and in test [4] was “Not Active” in each case.
For `CC1(C)[C@@H](O[C@H]2O[C@H](C(=O)O)[C@@H](O)[C@H](O)[C@H]2O[C@@H]2O[C@H](C(=O)O)[C@@H](O)[C@H](O)[C@H]2O)CC[C@]2(C)[C@H]3C(=O)C=C4[C@@H]5C[C@@](C)(C(=O)O)CC[C@]5(C)CC[C@@]4(C)[C@]3(C)CC[C@@H]12` [GLYCYRRHIZIN], the IC50 entry (in [1]; in test [2]; in test [3]; at Vasopressin V1a receptor; at Caspase-1; in [4]) was “Not Active” each time. Moreover, the IC50 result in [5], in test [6], in [7] and in test [8] was “Not Active” throughout. Besides, the Ki result in test [2] and in [4] was “Not Active” in each case.
For `COC1=CC(=O)C[C@@H](C)[C@]12Oc1c(Cl)c(OC)cc(OC)c1C2=O` [GRISEOFULVIN], the IC50 result (in test [1]; in test [2]; in test [3]; on Vasopressin V1a receptor; against Caspase-1; in test [4]) was “Not Active” each time. The IC50 entry in test [5], in [6], in [7] and in test [8] was “Not Active” in each case. In addition, the Ki result in test [2] and in test [4] was “Not Active” throughout.
As to `C/C=C1\[C@H]2C=C(C)C[C@]1(N)c1ccc(=O)[nH]c1C2` [HUPERZINE A], the IC50 entry (in test [1]; in [2]; in [3]; against Vasopressin V1a receptor; on Caspase-1; in test [4]) was “Not Active” throughout. For the same compound, the IC50 result in [5], in test [6], in test [7] and in test [8] was “Not Active” in each case. The Ki entry in test [2] and in test [4] was “Not Active” throughout.
On to `NS(=O)(=O)c1cc2c(cc1Cl)NCNS2(=O)=O` [HYDROCHLOROTHIAZIDE], for which the IC50 entry (in test [1]; in test [2]; in test [3]; at Vasopressin V1a receptor; at Caspase-1; in test [4]) was “Not Active” in each case. The IC50 entry in [5], in test [6], in test [7] and in [8] was “Not Active” in each case. The Ki result in test [2] and in [4] was “Not Active” each time.
For the compound `O=P1(NCCCl)OCCCN1CCCl` (stereo not drawn) [IFOSFAMIDE], the IC50 entry (in test [1]; in test [2]; in [3]; on Vasopressin V1a receptor; at Caspase-1; in test [4]) was “Not Active” each time. In addition, the IC50 result in test [5], in test [6], in test [7] and in test [8] was “Not Active” each time. Moreover, the Ki result in test [2] and in [4] was “Not Active” in each case.
`CN1CCC[C@H]1c1cccnc1` [NICOTINE]: the IC50 entry (in [1]; in test [2]; in test [3]; on Vasopressin V1a receptor; on Caspase-1; in test [4]) was “Not Active” throughout. In addition, the IC50 result in [5], in [6], in test [7] and in test [8] was “Not Active” throughout. For the same compound, the Ki entry in test [2] and in test [4] was “Not Active” throughout.
Consider `O=C1CN=C(c2ccccc2)c2cc([N+](=O)[O-])ccc2N1` [NITRAZEPAM], for which the IC50 entry was “Not Active” in test [1]; “Not Active” in [2]; “Not Active” in test [3]; “Not Active” at Vasopressin V1a receptor; “Not Active” against Caspase-1; 54.7 nM in test [4] (read-out: IC50). For the same compound, the IC50 entry in [5], in [6], in test [7] and in test [8] was “Not Active” throughout. Moreover, the Ki result in test [2] was “Not Active”; in test [4] (read-out: Ki), 44.6 nM.
